Test results: US20080019909A1, “Modulation of Programmed Necrosis” (priority 2003, published 2008)
“Also recorded” adds a separate entry of the source.

Tests used:
[1] = system: TNFR-2+ RIP -/- Jurkat cells (R1.1); experiment: TNF cytotoxic assay (cell loss by PI exclusion on FACS), TNFR-2+ RIP -/- cells; assay type: cell-based
Text: The results are representative of three experiments.

caspase-8 -/- J3.2 cells = experiment: TNF cytotoxic assay (cell loss by PI exclusion on FACS), caspase-8 -/- J3.2 cells; conditions: caspase-8 -/- J3.2 cells; rhTNF 15-16 hours; zVAD-fmk or 0.5 mM GA pretreatment
FADD -/- I42 cells = experiment: TNF cytotoxic assay (cell loss by PI exclusion on FACS), FADD -/- I42 cells; assay type: cell-based; conditions: FADD -/- I42 cells; TNF 16 hours; zVAD-fmk or GA
Method: Cells were stimulated with, TNF or anti-Fas antibody (CH11) for 12 hours and cell loss was analyzed on the GFP+ cells by PI exclusion on FACS.
FIG. 8F is a bar graph depicting the results of experiments in which FADD -/- I42 cells and caspase-8 -/- J3.2 cells (both are TNFR-2+) were stimulated with TNF in the presence or absence of zVAD-fmk for 16 hours.

[2] = system: TNFR-2-expressing wild-type (4E3) Jurkat cells
Method: Cells were harvested and analyzed by PI exclusion on FACS 16 hours post-stimulation and cell loss was calculated as described in Example 1 (infra).

RIP = experiment: Western blot of RIP cleavage in TNF or anti-Fas stimulated wild-type 4E3 cells; assay type: cell-based; conditions: six hours, C-terminal specific RIP antibody
Method: FIG. 4A is a Western blot showing the results of experiments in which wild-type 4E3 cells (WT) and J3.2 cells (Casp-8 -/-) cells Were treated with various combinations of rhTNFα, Apo-1 (anti-Fas), and zVAD-fmk for six hours before whole cell lysates were harvested.

z-Val-Ala-Asp-fluoromethyl ketone [zVAD-fmk]
TNF-induced death (cell loss) ([1]; TNFR-2+ RIP -/- cells (R1.1), 10 ng/ml rhTNFα, 16 hours, 50 mM zVAD-fmk or 0.5 mM GA): completely inhibited | TNF killing restored by K45A or RIPc, in the presence of zVAD-fmk ([1]; TNFR-2+ RIP -/- cells reconstituted with kinase inactive (K45A) RIP or RIPc): potently inhibited | TNF-induced programmed necrosis (cell loss) (caspase-8 -/- J3.2 cells): failed to provide any protection; also recorded: not blocked | TNF-induced programmed necrosis (cell loss) (FADD -/- I42 cells): failed to provide any protection; also recorded: not blocked | cell viability, compound alone [2]: no effect | TNF-induced death (cell loss), zVAD-fmk plus GA together ([2]; wild-type 4E3 cells, 10 ng/ml rhTNFα with zVAD-fmk plus GA, 16 hours): synergized to completely suppress | TNF-induced death (cell loss), single agent ([2]; wild-type 4E3 cells, 10 ng/ml rhTNFα, 16 hours, or 0.5 mM GA): partial protective effect | RIP cleavage (RIP): potently inhibited
